Legend:
[1] = test system: Na+-independent chloride-bicarbonate (Cl−/HCO3−) exchanger (AE) protein; assay: Intracellular pH recovery after alkalization (NH4Cl pulse) in BCECF-laden adult cardiac fibroblasts; type: cell-based, Wistar rats; conditions: for percentage of the change in pH value still present, relative to the maximum alkaline pH value reached, after 5 min / percentage of the change in pH value still present, relative to the maximum alkaline pH value reached, after 8 min: 10^−6 mole/liter, 5 mmole/liter NH4Cl pulse, cardiac fibroblasts, mean and standard deviation from 3 to 5 experiments; for percentage of the change in pH value still present, relative to the maximum alkaline pH value reached, after 5 min / percentage of the change in pH value still present, relative to the maximum alkaline pH value reached, after 8 min / recovery after the intracellular alkalization, compared with guanabenz-pre-treated or non-pre-treated cells: 30 min preincubation; for percentage of the change in pH value still present, relative to the maximum alkaline pH value reached, after 5 min: 5 min after maximum alkaline pH; for percentage of the change in pH value still present, relative to the maximum alkaline pH value reached, after 8 min: 8 min after maximum alkaline pH; for recovery after the intracellular alkalization, compared with guanabenz-pre-treated or non-pre-treated cells: moxonidine 10^−6 to 10^−9 mole/liter, H2-DIDS 10^−3 mole/liter, NH4Cl pulse
Protocol: (§1) The investigations were carried out on cardiac fibroblasts isolated from the left ventricle of the myocardium of 6-week-old Wistar rats. Myocardial tissue was placed in HBSS medium without Ca^2+ and Mg^2+ (GibcoBRL), cut into small pieces which were incubated with 1 mg/ml collagenase A (Roche) with continuous shaking for 10 minutes in HBSS medium. The first supernatant was discarded and the incubation operation was repeated three times, the supernatant being collected each time in a tube with 5 ml HBSS medium. After centrifuging at 160×g for 10 min, the pellet was re-suspended in a flask with DMEM (GibcoBRL), to which 10% foetal calf serum (FCS, from Sigma) was added. […] The flasks were incubated in an air-humidified incubator with 5% CO2 and at 37° C. Cardiac fibroblasts, which grew in a typical monolayer, were cultivated by standard cell culture techniques and at subconfluence were transferred into new flasks in a 1:3 ratio [Brilla et al. (1994) Collagen metabolism in cultured adult rat cardiac fibroblasts: response to agiotensin II and aldosterone. J. Mol. Cell Cardiol. 26: 809-820].
The intracellular pH value of an individual cell was measured using the fluorescent marker BCECF (2′,7′-bis-(2-carboxymethyl)-5-[and -6]-carboxyfluorescein from Molecular Probes), the fluorescent intensity of which is pH-dependent. The cardiac fibroblasts were grown on glass microscope slides until at subconfluence, and were then laden with BCECF-acetoxymethyl ester. The fibroblasts thus pre-treated were washed with PBS and then preincubated with various test solutions and then rinsed. In so doing, the intracellular fluorescence of the BCECF was measured using an inverted microscope, to which a “PTI 710 Photon Counting Detection” system (Photon Technology International) with two monochromators was connected. The data were analysed using a fluorescence spectrometer. The measurement results—fluorescence signals—were converted into pH values using a calibration curve.
Composition of the bicarbonate solution: 118 mmole/liter NaCl, 4.7 mmole/liter KCl, 2.5 mmole/liter CaCl2×2H2O, 1.6 mmole/liter MgCl2×7H2O, 24.9 mmole/liter NaHCO3, 1.2 mmole/liter KH2PO4, 5.6 mmole/liter glucose and either 0.4% or 10% FCS, equilibrated with 20% O2 and 5% CO2 for at least 30 minutes to ensure a pH value of 7.4.
The individual test solutions were based on the above bicarbonate solution and contained the following concentration of the compounds below: • 10^−6 mole/liter guanabenz (Sigma) • 10^−6 mole/liter to 10^−9 mole/liter moxonidine • 10^−3 mole/liter H2-DIDS (Molecular Probes) Intracellular alkalization of the cells was achieved by rinsing with a 5 mmole/liter NH4Cl-containing bicarbonate solution (NH4Cl pulse). Subsequent washing-out of the NH4Cl by rinsing the cells with fresh bicarbonate solution results in intracellular acidification.
The effect of moxonidine, DIDS and guanabenz on the change in the intracellular pH value after alkalization of the cells is determined by an NH4Cl pulse. To this end, the BCECF-laden cardiac fibroblasts were preincubated for 30 minutes with a bicarbonate test solution containing one of the above compounds. Then the response of the intracellular pH value of the cells thus pre-treated to a 5 mmole/liter NH4Cl pulse was measured over time. Also the change in pH value which took place during the subsequent washing-out of the NH4Cl (intracellular acidification) was further measured over time. […] To quantify the inhibitory effects, the percentage of the change in pH value still present relative to the maximum alkaline or maximum acidic pH value achieved was calculated.

[2] = test system: Na+/bicarbonate (Na+/HCO3−) cotransporter (NBC) protein or/and Na+-dependent chloride-bicarbonate (Cl−/HCO3−) exchanger (NDAE and N(D)CBE) protein; assay: Intracellular pH recovery after acidification (NH4Cl wash-out) in cardiac fibroblasts; type: cell-based, Wistar rats; conditions: recovery from intracellular acidification
Protocol: as §1, with “Cardiac fibroblasts, which grew in a typical monolayer, were cultivated by standard cell culture techniques and at subconfluence were transferred into new flasks in a 1:3 ratio [Brilla et al. (1994) Collagen metabolism in cultured adult rat cardiac fibroblasts: response to agiotensin II and aldosterone. J. Mol. Cell Cardiol. 26: 809-820].” left out
The intracellular pH value of an individual cell was measured using the fluorescent marker BCECF (2′,7′-bis-(2-carboxymethyl)-5-[and -6]-carboxyfluorescein from Molecular Probes), the fluorescent intensity of which is pH-dependent. […] In so doing, the intracellular fluorescence of the BCECF was measured using an inverted microscope, to which a “PTI 710 Photon Counting Detection” system (Photon Technology International) with two monochromators was connected. The data were analysed using a fluorescence spectrometer. The measurement results—fluorescence signals—were converted into pH values using a calibration curve. […]

Row | SMILES | percentage of the change in pH value still present, relative to the maximum alkaline pH value reached, after 5 min [1] [%] | percentage of the change in pH value still present, relative to the maximum alkaline pH value reached, after 8 min [1] [%] | recovery after the intracellular alkalization, compared with guanabenz-pre-treated or non-pre-treated cells [1] | inhibition of NBC or/and NDAE and N(D)CBE proteins (result in words) [2] | inhibitory effect on the recovery from the alkaline pH (dose-effect curve) ([1]; concentration of 10^−8 mole/liter)
1 | N=C(N)N/N=C/c1c(Cl)cccc1Cl [Guanabenz] | 20.6 ± 5.2 | 9.9 ± 2.7 | – | – | –
2 | O=S(=O)(O)c1cc(N=C=S)ccc1C=Cc1ccc(N=C=S)cc1S(=O)(=O)O [DIDS, 4,4′-diisothiocyanostilbene-4,4′-disulfonate] | – | – | considerably longer recovery | – | –
3 | COc1nc(C)nc(Cl)c1NC1=NCCN1 [Moxonidine, 4-chloro-5-[(4,5-dihydro-1H-imidazol-2-yl)-amino]-6-methoxy-2-methylpyrimidine] | 58.8 ± 12.0 | 41.9 ± 24.4 | considerably longer recovery | selective inhibitor | significantly inhibitory action

— patent publication US20050165080A1, “Method for the treatment of diseases requiring inhibition or a reduction in the activity of pH value-regulating bicarbonate transporter proteins” (Solvay Pharmaceuticals GmbH, priority 2002, published 2005)
